{"source": "patent US10188633B2", "about": "“Identification of small molecules that facilitate therapeutic exon skipping” (The Regents of the University of California, priority 2011, dated 2019)", "key": {"[1]": {"tested_on": "exon skipping", "assay": "Counter screens, 16 point titrations and mdx mouse myotubes (validation of lead hits)", "format": "cell-based", "text": "The cell line, which was adapted to allow the screening of thousands of compounds in multiple replicates, was obtained from Dr. Qi Lu. […]"}, "[2]": {"tested_on": "human DMD exon 50 GFP based reporter", "assay": "BioMol high throughput screen in Ex50-GFP reporter C2C12 myoblasts, with or without AON6", "format": "cell-based, mouse", "conditions": "compound 10 uM; for Average Fluorescence (n = 3): average of 3 replicate plates", "text": "Small molecule libraries were screened for exon skipping promoting activity in C2C12 myoblasts expressing a human DMD exon 50 GFP based reporter. […] In the reporter cells, successful skipping of DMD exon 50 creates in-frame GFP expression. Number of cells that were fluorescing was quantified using a high content cell imager in 384 well plate format. Fluorescence was normalized by subtracting the average fluorescence value of the carrier (DMSO) controls. Fluorescence readouts are plotted for the BioMol library screen both with (+AO) and without (−AO) from Source Plate 1 (containing the Orphan Ligand, Ion Channel, Enzyme Inhibitor, and Endocannabanoid libraries, n=300). Each point for the DMSO controls, all compounds, and the Top 5% from Source Plate 1 (n=15) represents the average normalized fluorescence of 6 replicates in the −AO screen and 3 replicates in the +AO screen. […] Individual points for dantrolene are plotted with the bold horizontal line indicating the median. The short horizontal lines interspersed among the data points indicate 1, 2, and 3 standard deviations away from the DMSO treatment mean fluorescence.\nIn contrast to prior screens aimed at identifying small molecules which impact exon skipping, our screen is unique at least because it relies on robust quantitation of a skipping reporter in the context of a muscle lineage cell in the presence and absence of suboptimal AO. These screens were performed using a mouse muscle cell line (C2C12) expressing a human DMD exon 50 GFP based reporter selected to minimize experimental variation and sensitivity in the context of an automated and quantitative fluorescent scanning system.\nAO was added prior to small molecule incubation in an effort to identify molecules that facilitate AO skipping rather than AO delivery. The fluorescence induced by each compound was normalized to a vehicle controls per plate to correct for plate to plate variability. Fluorescence was averaged across replicate plates (n=6 without AO screen, n=3 with AO screen). Compounds were rank ordered based on average intensity of fluorescence and difference between the without AO and with AO screen (FIG. 1 and Table 2).\n(§1) A stable clone was generated from C2C12 cells transfected with a human exon 50 DMD GFP reporter (ex50GFP) that has been previously described. Ex50GFP reporter myoblasts were seeded into uncoated 384 well plates and were incubated for 4 hours either with or without 300 nM of 2′-O-methyl phosphorothioate AON6 [5′[…] 3′ (SEQ ID NO:1)] targeting the human exon 50 splice donor site. Cells were transfected with AON6 using the FUGENE (Roche) transfection reagent per manufacturer's instructions. Following AON6 incubation, each component of the BioMol library (n=503) was screened at 10 uM concentration with a final concentration of the DMSO carrier being 1%. Forty-eight hours later fluorescence was measured using the MicroXpress high content imager and analyzed using MetaXpress. Immediately preceding imaging, DNA was stained with Hoescht for 30 min. The BioMol screen without AO (−AO) was performed in 6 replicates, and the with AO (+AO) screen was performed in 3 replicates. For the screen analysis raw fluorescence values were normalized to carrier controls present on each plate by subtracting the values. Negative fluorescence values were set to 0. The data from each compound were averaged from all replicates. For secondary screening by 12 or 16 point dose response, Ex50GFP myoblasts or C2C12 cells without the reporter were seeded on uncoated 384 well plates. A sub-optimal dose of AON6 targeting DMD exon 50 was added for 4 hours."}, "[3]": {"tested_on": "human DMD exon 50 GFP based reporter", "assay": "Secondary screening, 12 or 16 point titrations on the DMD exon 50 reporter cell line with or without AON6", "format": "cell-based, mouse", "conditions": "for increase in fluorescence in the Ex50-GFP+AO compared to the reporter line without AO: 12 or 16 point titrations from 100 uM, positivity criterion (FIG. 5 legend: >10%); for dose response in Ex50-GFP reporter: 12 or 16 point titrations with AON6", "method": "12 or 16 point titrations of compounds were added to the Ex50-GFP and C2C12 myoblasts either with or without AON6.\nas §1, with “hours. Following the 4 hour incubation, a compound dilution was added (beginning at 100 uM with 1:1 dilutions) for either 12 or 16 points. After a 48 hour incubation with compounds, DNA was stained with Hoescht, and fluorescence determined using the high content imager and analyzed with MetaXpress.” for “hours.”"}, "[4]": {"tested_on": "DMD exon 31", "conditions": "cited from earlier work"}, "[5]": {"conditions": "cited from earlier work"}, "[6]": {"tested_on": "Ca2+-ATPase of sarcoplasmic reticulum", "conditions": "at 0.5-2 μM ATP; cited from earlier work"}, "[7]": {"tested_on": "DMD exon 51", "conditions": "cited from earlier work"}, "[8]": {"conditions": "Without AON6 screen, 48 h, normalized to DMSO carrier controls"}, "[9]": {"conditions": "With AON6 screen, 48 h, fluorescence normalized by subtracting DMSO carrier controls"}, "[10]": {"conditions": "With AON6 screen, 48 h, normalized to DMSO carrier controls"}}}
{"compound": "CN(C)CCCn1cc(C2=C(c3c[nH]c4ccccc34)C(=O)NC2=O)c2ccccc21", "note": "[GF 109203X]", "values": [{"measurement": "efficacy in counter screen and on mdx mouse myotubes", "setting": "[1]", "value": "showing efficacy in counter screen and on mdx mouse myotubes"}, {"measurement": "Fluorescence Plate 1", "setting": "[2]; [8]", "value": 22.19}, {"measurement": "Fluorescence Plate 2", "setting": "[2]; [8]", "value": 15.01}, {"measurement": "Fluorescence Plate 3", "setting": "[2]; [8]", "value": 13.67}, {"measurement": "Fluorescence Plate 4", "setting": "[2]; [8]", "value": 66.78}, {"measurement": "Fluorescence Plate 5", "setting": "[2]; [8]", "value": 64.46}, {"measurement": "Fluorescence Plate 6", "setting": "[2]; [8]", "value": 66.48}, {"measurement": "Average Fluorescence (n = 6)", "setting": "[2]; Without AON6 screen, average of 6 replicate plates", "value": 41.76}]}
{"compound": "CC1CNCCN1S(=O)(=O)c1cccc2cnccc12", "note": "(stereo not shown) [H-7]", "values": [{"measurement": "increase in fluorescence in the Ex50-GFP+AO compared to the reporter line without AO", "setting": "[3]", "value": 10, "unit": "%"}, {"measurement": "dose response in Ex50-GFP reporter", "setting": "[3]", "value": "evidence of a dose response"}, {"measurement": "Fluorescence Plate 1", "setting": "[2]; [9]", "value": 29.03}, {"measurement": "Fluorescence Plate 2", "setting": "[2]; [10]", "value": 30.45}, {"measurement": "Fluorescence Plate 3", "setting": "[2]; [10]", "value": 12.11}, {"measurement": "Average Fluorescence (n = 3)", "setting": "[2]; With AON6 screen", "value": 23.87}]}
{"compound": "CCN1/C(=C/C(C)=O)Sc2ccc(OC)cc21", "note": "[TG003]", "values": [{"measurement": "mutant exon 31 skipping", "setting": "[4]", "value": "increased mutant exon 31 skipping"}]}
{"compound": "O=C1CN(/N=C/c2ncc(-c3ccc(Br)cc3)o2)C(=O)N1", "note": "[azumolene]", "values": [{"measurement": "water solubility relative to dantrolene", "setting": "[5]", "value": "more water soluble than dantrolene"}]}
{"compound": "CYCLOPIAZONIC ACID", "values": [{"measurement": "amount completely inhibiting the enzyme", "setting": "[6]", "value": "Induces the release of intracellular stored Ca2+, without increasing IP3 levels, via inhibition of endoplasmic reticulum Ca2+− ATPase. It is a highly specific inhibitor of the Ca2+− ATPase of sarcoplasmic reticulum, completely inhibiting the enzyme at 6-8 nmol/mg protein (at 0.5-2 μM ATP)."}, {"measurement": "increase in fluorescence in the Ex50-GFP+AO compared to the reporter line without AO", "setting": "[3]", "value": 10, "unit": "%"}, {"measurement": "dose response in Ex50-GFP reporter", "setting": "[3]", "value": "evidence of a dose response"}, {"measurement": "Fluorescence Plate 1", "setting": "[2]; [9]", "value": 29.57}, {"measurement": "Fluorescence Plate 2", "setting": "[2]; [10]", "value": 33.40}, {"measurement": "Fluorescence Plate 3", "setting": "[2]; [10]", "value": 17.24}, {"measurement": "Average Fluorescence (n = 3)", "setting": "[2]; With AON6 screen", "value": 26.74}]}
{"compound": "Pro051: systemic 2′-O-methyl modified AO directed against DMD exon 51 (antisense UCAAGGAAGAUGGCAUUUCU; all 2'-O-methyl, backbone not given here)", "values": [{"measurement": "rescued dystrophin protein levels", "setting": "[7]; systemic 2'-O-methyl AO, phase 1-2a", "value": "1.8-15.6 % of normal"}, {"measurement": "6 minute walk test at 48 weeks", "setting": "[7]; weekly subcutaneous 6 mg/kg, non-placebo controlled extension", "value": "modest improvement"}]}
